# According to paper PMC7031697, “Mechanism of Activation of AMPK by Cordycepin” (Cell Chemical Biology, 2020):
# Read-outs that look alike come from different tables or passages of the source.
# Key:
# [1] = target: T1, AMPK complexes containing WT γ2 (Homo sapiens, UniProt Q9UGJ0); experiment: AMPK activity in anti-FLAG immunoprecipitates, HepG2 cells with FLAG-tagged WT AMPK-γ2; assay type: cell-based; details: 1 h, 300 μM cordycepin, 10 mM phenformin or 300 μM A-769662
# T1 construct: expressed in transfected cells; host or cells: HepG2 (transient, Fugene 6)
# T1 sequence (Q9UGJ0 whole entry, one chain of several): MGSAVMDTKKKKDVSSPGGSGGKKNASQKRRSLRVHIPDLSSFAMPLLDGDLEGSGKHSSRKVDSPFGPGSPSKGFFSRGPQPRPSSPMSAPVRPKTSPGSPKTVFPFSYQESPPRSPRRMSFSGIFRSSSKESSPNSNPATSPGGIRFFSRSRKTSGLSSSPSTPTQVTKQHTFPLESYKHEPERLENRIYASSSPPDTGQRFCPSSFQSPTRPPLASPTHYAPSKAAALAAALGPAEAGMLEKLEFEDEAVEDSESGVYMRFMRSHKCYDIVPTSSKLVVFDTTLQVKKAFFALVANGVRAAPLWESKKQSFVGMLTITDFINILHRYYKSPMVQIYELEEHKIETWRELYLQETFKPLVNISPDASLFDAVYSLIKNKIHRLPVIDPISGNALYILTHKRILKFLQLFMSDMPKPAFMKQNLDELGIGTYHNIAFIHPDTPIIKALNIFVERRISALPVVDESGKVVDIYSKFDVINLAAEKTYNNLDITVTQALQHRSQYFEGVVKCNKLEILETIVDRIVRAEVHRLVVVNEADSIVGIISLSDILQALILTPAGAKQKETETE
# Description: (§1) HepG2 cells ([…]) were cultured in Minimum Essential Medium (MEM) supplemented with 10% (v/v) FBS, 1% (v/v) non-essential amino acids and 1% (v/v) penicillin/streptomycin. Transient transfection of DNAs encoding FLAG-tagged AMPK-γ2 or an R531G mutant of AMPK-γ2 were carried out 36-48 hr prior to experiments using Fugene 6 according to manufacturers’ instructions. U2OS cells ([…]) were cultured in Dulbecco’s Modified Eagle’s Medium (DMEM) supplemented with 10% (v/v) FBS and 1% (v/v) penicillin/streptomycin.
# (§2) HepG2 cells were transiently transfected with DNAs encoding FLAG-tagged wild type AMPK-γ2 or the R531G mutant, using Fugene 6 according to the manufacturers’ instructions. After transfection for 48 hr, cells were treated with various agents as described, and cell lysates prepared ([Hawley et al., 2018]). FLAG-tagged AMPK was then immunoprecipitated from 150 μg total protein by incubation at 4°C for 2 hr on a roller mixer with 9 μl of EZview Red anti-FLAG M2 affinity gel. After extensive washing, the immunoprecipitates were assayed for AMPK activity (50 μg per assay in a total volume of 50 μl) using the AMARA peptide (200 μM) as substrate in the presence of 200 μM AMP, 5 mM MgCl2 and 200 μM γ-^32P-ATP as described previously ([Fyffe et al., 2018]).
# [2] = target: T2, AMPK complexes containing the R531G mutant (Homo sapiens, UniProt Q9UGJ0, R531G); experiment: AMPK activity in anti-FLAG immunoprecipitates, HepG2 cells with FLAG-tagged AMPK-γ2 R531G mutant; assay type: cell-based; details: 1 h, 300 μM cordycepin, 10 mM phenformin or 300 μM A-769662
# T2 construct: expressed in transfected cells; host or cells: HepG2 (transient, Fugene 6)
# T2 sequence (Q9UGJ0 whole entry R531G, one chain of several): as the sequence (Q9UGJ0 whole entry, one chain of several) above, with R531G counted along it
# Description: as §1, §2
# AMPK = experiment: Effect of adenosine kinase and transport inhibitors on AMPK activation in HepG2 cells; assay type: cell-based, human; details: 1 μM ABT-702 or 0.5 μM dipyridamole; for effect of cordycepin to activate and phosphorylate AMPK: 300 μM cordycepin 1 h; for effects of AICA riboside on AMPK: 3 mM AICAR 1 h
# Description: Endogenous AMPK in crude cell lysates was first immunoprecipitated using an equal mixture of anti-α1 and –α2 antibodies (150 μg protein) by incubation at 4°C for 2 hr on a roller mixer. After extensive washing, the immunoprecipitates were assayed for AMPK activity (50 μg per assay, total assay volume 50 μl) using the AMARA peptide (200 μM) as substrate in the presence of 200 μM AMP, 5 mM MgCl2 and 200 μM [γ-^32P]ATP ([Fyffe et al., 2018]).
# [3] = tested on: AMPK purified from rat liver; experiment: Allosteric activation of purified rat liver AMPK (SAMS peptide, cell-free); assay type: biochemical
# Description: AMPK (15 ng) purified from rat liver was assayed in solution using the SAMS peptide as substrate ([Fyffe et al., 2018]) in the presence of AMP or CoMP (concentrations specified in Figure legends), and either 5 mM MgCl2 and 200 μM [γ-^32P]ATP or 9.8 mM MgCl2 and 5 mM [γ-^32P]ATP, thus maintaining a constant excess of [Mg^2+] over [ATP] ([Storer and Cornish-Bowden, 1976]). Total assay volume was 25 μl.
# human α2β2γ1 complex [4] = target: T3, human α2β2γ1 complex (Homo sapiens, UniProt P54619+P54646); experiment: AMPK assay using ATP or CoTP as co-substrate (GST-ACC1 phosphorylation); assay type: biochemical; details: for allosteric activation: 30 μM AMP; for Km / estimated Vmax as phosphate donor: GST-ACC1 substrate; for Km: Mg2+ at constant 4.8 mM excess, read-out: Km as phosphate donor; for estimated Vmax as phosphate donor: Michaelis-Menten fit; for effect on allosteric activation by AMP: at high concentrations (5 mM)
# T3 construct: made in house
# T3 sequence (P54646 whole entry): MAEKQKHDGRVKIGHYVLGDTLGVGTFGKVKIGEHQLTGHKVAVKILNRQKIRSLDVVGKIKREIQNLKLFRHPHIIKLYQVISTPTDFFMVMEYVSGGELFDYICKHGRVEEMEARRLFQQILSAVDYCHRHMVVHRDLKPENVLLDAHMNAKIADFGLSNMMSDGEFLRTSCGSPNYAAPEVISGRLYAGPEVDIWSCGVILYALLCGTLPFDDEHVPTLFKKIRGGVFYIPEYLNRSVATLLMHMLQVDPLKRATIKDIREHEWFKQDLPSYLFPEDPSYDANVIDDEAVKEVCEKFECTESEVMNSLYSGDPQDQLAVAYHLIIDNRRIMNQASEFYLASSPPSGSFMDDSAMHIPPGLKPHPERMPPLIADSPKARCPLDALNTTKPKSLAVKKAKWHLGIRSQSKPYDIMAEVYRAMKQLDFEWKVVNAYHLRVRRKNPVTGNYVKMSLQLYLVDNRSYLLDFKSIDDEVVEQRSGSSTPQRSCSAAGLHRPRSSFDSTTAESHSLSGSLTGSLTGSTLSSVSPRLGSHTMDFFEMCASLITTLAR
# T3 sequence (O43741 whole entry partner): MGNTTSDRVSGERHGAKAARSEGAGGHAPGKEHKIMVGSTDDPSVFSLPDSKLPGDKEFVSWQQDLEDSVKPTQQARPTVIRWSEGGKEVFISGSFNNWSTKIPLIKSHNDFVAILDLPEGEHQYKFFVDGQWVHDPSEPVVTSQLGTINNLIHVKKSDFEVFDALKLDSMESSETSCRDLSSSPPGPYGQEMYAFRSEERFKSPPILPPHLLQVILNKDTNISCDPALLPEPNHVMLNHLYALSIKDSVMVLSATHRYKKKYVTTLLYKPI
# T3 sequence (P54619 whole entry): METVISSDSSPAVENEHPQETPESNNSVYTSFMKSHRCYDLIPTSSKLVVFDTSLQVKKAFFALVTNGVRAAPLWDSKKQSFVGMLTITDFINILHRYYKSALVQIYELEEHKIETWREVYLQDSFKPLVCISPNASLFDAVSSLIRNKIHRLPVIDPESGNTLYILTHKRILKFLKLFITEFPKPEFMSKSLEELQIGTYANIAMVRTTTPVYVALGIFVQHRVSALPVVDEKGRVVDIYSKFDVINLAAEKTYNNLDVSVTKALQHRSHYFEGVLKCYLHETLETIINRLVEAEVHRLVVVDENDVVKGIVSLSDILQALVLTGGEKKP
# Description: As ^32P-labelled CoTP was not available, the experiments in Figures 3C and 3D were performed using non-radioactive CoTP and utilized as co-substrate a construct of glutathione-S-transferase fused at the N-terminus of residues 60-94 of rat ACC1 ([Scott et al., 2002]), which includes the Ser79 phosphorylation site. Bacterially expressed GST-ACC (0.5 μg) was incubated for 10 min in a total volume of 25 μl with bacterially expressed human AMPK (30 ng of α2β2γ1 complex, previously phosphorylated on Thr172 using CaMKK2) with ATP or CoTP as indicated, and sufficient MgCl2 to maintain a constant 4.8 mM excess of [Mg^2+] over [ATP]. Phosphorylation of this substrate was detected using anti-pACC antibody and quantified using a LiCor Odyssey imager.
# human α2β2γ1 complex [5] = target: T3, human α2β2γ1 complex; experiment: Cell-free promotion of Thr172 phosphorylation by LKB1; assay type: biochemical; details: varying CoMP, 200 μM ATP
# Description: These were as described previously ([Fyffe et al., 2018]) with some modifications. Bacterially expressed human AMPK (α2β2γ1 complex, unphosphorylated on Thr172, 500 ng) was incubated for 10 min in a total volume of 25 μl with 200 μM ATP, […] with/without the LKB1:STRAD:MO25 complex (10 ng), in the presence or absence of AMP (200 μM) or cordycepin as indicated. Aliquots were removed for Western blotting and AMPK assays.
# rat liver AMPK = experiment: Cell-free inhibition of Thr172 dephosphorylation by PP2Cα; assay type: biochemical; details: fit of AMPK activity as a function of CoMP concentration; read-out: EC50 of protection against inactivation and Thr172 dephosphorylation by PP2Cα
# Description: These were as described previously ([Fyffe et al., 2018]) with some modifications. Rat liver AMPK (12.5 μg/ml) was incubated in a shaking incubator at 30°C for 10 min in Hepes buffer (50 mM Na Hepes pH 7.4, 150 mM NaCl, 1 mM dithiothreitol, 0.02% (w/v) Brij-35) with MgCl2 and sufficient PP2Cα to yield about 70% inactivation in the absence of added nucleotide. Aliquots were removed for Western blotting and AMPK assay. Kinase assays were performed immediately after a further 100-fold dilution, which was sufficient to prevent dephosphorylation during the assay.
# [6] = 200 μM ATP, for CoMP estimated with maximal activation constrained to 4.4-fold
smiles,measurement,setting,value
N#Cc1c(O)c2c(-c3ccc(-c4ccccc4O)cc3)csc2[nH]c1=O [A-769662],activation of AMPK complexes containing WT γ2,[1],activated
same,activation of AMPK complexes containing the R531G mutant,[2],still activated
"Nc1ncnc2nc(-c3ccc(N4CCOCC4)nc3)cc(-c3cccc(Br)c3)c12 [ABT-702, 4-amino-5-(3-bromophenyl)-7-(6-morpholinopyridin-3-yl)pyrido[2,3-d]pyrimidine]",effect of cordycepin to activate and phosphorylate AMPK,AMPK,blocked
same,effects of AICA riboside on AMPK,AMPK,also blocked
"Nc1ncnc2c1ncn2[C@@H]1O[C@H](COP(=O)(O)O)[C@@H](O)[C@H]1O [AMP, reference compound]",maximal allosteric activation,[3]; 200 μM ATP,4.4 ± 0.1 fold
same,EC50,[3]; [6],3.8 ± 0.2 µM
same,IC50,"[3]; 200 μM ATP, read-out: IC50 (concentration giving half-maximal inhibition)",1600 ± 100 µM
same,allosteric activation,human α2β2γ1 complex [4]; ATP or CoTP concentrations increased to 5 mM,abolished
same,allosteric activation,human α2β2γ1 complex [4]; kinase assayed using either 200 μM ATP or CoTP as substrate,4 fold
Nc1ncnc2c1ncn2[C@@H]1O[C@H](COP(=O)(O)OP(=O)(O)OP(=O)(O)O)[C@@H](O)[C@H]1O [ATP],Km,human α2β2γ1 complex [4],36 ± 3 µM
same,estimated Vmax as phosphate donor,human α2β2γ1 complex [4],1.02
same,effect on allosteric activation by AMP,human α2β2γ1 complex [4],antagonize
"Nc1ncnc2c1ncn2[C@@H]1O[C@H](COP(=O)(O)O)C[C@H]1O [CoMP, cordycepin 5′-monophosphate]","potency as an allosteric activator, less potent than AMP",[3]; 200 μM ATP,≈ 30 fold
same,IC50,"[3]; 200 μM ATP, estimated, maximal activation constrained to 4.4-fold, read-out: IC50 of inactivation",500 ± 180 µM
same,EC50,[3]; [6],120 ± 50 µM
same,EC50,"[3]; 5 mM ATP, maximal activation constrained to 4.4-fold",1400 µM
same,activation and Thr172 phosphorylation of AMPK by LKB1,human α2β2γ1 complex [5],promoted
same,EC50,rat liver AMPK,68 ± 12 µM
"Nc1ncnc2c1ncn2[C@@H]1O[C@H](COP(=O)(O)OP(=O)(O)OP(=O)(O)O)C[C@H]1O [CoTP, cordycepin triphosphate]",Km,human α2β2γ1 complex [4],22 ± 3 µM
same,estimated Vmax as phosphate donor,human α2β2γ1 complex [4],0.92
same,effect on allosteric activation by AMP,human α2β2γ1 complex [4],antagonize
OCCN(CCO)c1nc(N2CCCCC2)c2nc(N(CCO)CCO)nc(N3CCCCC3)c2n1 [dipyridamole],effect of cordycepin to activate and phosphorylate AMPK,AMPK,blocked
same,effects of AICA riboside on AMPK,AMPK,also blocked
[H]/N=C(/N)N/C(=N/[H])NCCc1ccccc1 [phenformin],activation of AMPK complexes containing WT γ2,[1],activated
same,activation of AMPK complexes containing the R531G mutant,[2],not activated
